Where “and” joins values, the source holds several entries; their conditions need not be identical. Identical values can stand only once. Inconclusive results and toxic doses are left out.

For 24 compounds, T/C results are on record in PubChem BioAssay AID330 (DTP/NCI, 2004).

The test system of this experiment is P388 leukemia ip, CD2F1 mice, survival T/C. Briefly: NCI In Vivo Anticancer Drug Screen. Data for tumor model P388 Leukemia (intraperitoneal) in CD2F1 (CDF1) mice. The settings on record: endpoint: median survival time, higher = longer survival. Summed up:
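Mice carrying the transplanted tumor received test compound or vehicle. Survival was recorded in each group, and the value is the treated-group measurement divided by that of the vehicle-treated control group.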

[1] abbreviates: dose: 60.0 mg/kg/injection, schedule: Q01DX005 (ip), vehicle: Klucel (hydroxypropylcellulose) (HPC).
Where [2] appears, read: dose: 120.0 mg/kg/injection, schedule: Q01DX005 (ip), vehicle: Klucel (hydroxypropylcellulose) (HPC).
Setting [3] is: dose: 15.0 mg/kg/injection, schedule: Q01DX005 (ip), vehicle: saline with Tween-80.
The mark [4] stands for this setting: dose: 30.0 mg/kg/injection, schedule: Q01DX005 (ip), vehicle: saline with Tween-80.
[5] abbreviates: dose: 60.0 mg/kg/injection, schedule: Q01DX005 (ip), vehicle: saline with Tween-80.
[6] abbreviates: dose: 50.0 mg/kg/injection, schedule: Q01DX005 (ip), vehicle: saline with Tween-80.
[7] abbreviates: dose: 100.0 mg/kg/injection, schedule: Q01DX005 (ip), vehicle: saline with Tween-80.
Where [8] appears, read: dose: 200.0 mg/kg/injection, schedule: Q01DX005 (ip), vehicle: saline with Tween-80.
Where [9] appears, read: dose: 100.0 mg/kg/injection, schedule: Q01DX001 (ip), vehicle: Klucel (hydroxypropylcellulose) (HPC).
Where [10] appears, read: dose: 200.0 mg/kg/injection, schedule: Q01DX001 (ip), vehicle: Klucel (hydroxypropylcellulose) (HPC).
Where [11] appears, read: dose: 100.0 mg/kg/injection, schedule: Q04DX002 (ip), vehicle: saline with Tween-80.
Where [12] appears, read: dose: 50.0 mg/kg/injection, schedule: Q01DX009 (ip), vehicle: saline.
The mark [13] stands for this setting: dose: 100.0 mg/kg/injection, schedule: Q01DX009 (ip), vehicle: saline.

Turning to `CC1(C)C(=O)C2=C(OC3([Se]2)C(=O)C(C)(C)C(=O)C(C)(C)C3=O)C(C)(C)C1=O`, the T/C was 100 % of control (dose: 7.5 mg/kg/injection, schedule: Q01DX005 (ip), vehicle: Klucel (hydroxypropylcellulose) (HPC)); 107 % of control (dose: 15.0 mg/kg/injection, schedule: Q01DX005 (ip), vehicle: Klucel (hydroxypropylcellulose) (HPC)); 107 % of control (dose: 30.0 mg/kg/injection, schedule: Q01DX005 (ip), vehicle: Klucel (hydroxypropylcellulose) (HPC)); 99 % of control under setting [1]; 102 % of control under setting [2].

`COc1ccc(CCNC2Oc3ccc([N+](=O)[O-])cc3-c3nc(C)c(C#N)cc32)cc1OC` (stereo not drawn): the T/C by setting is: under setting [3], 98 % of control; under setting [4], 98 % of control; under setting [5], 91 % of control and 92 % of control.

Turning to `O=C1CC[C@@H]2CCCC[C@@H]2C1`, the T/C by setting is: (dose: 12.5 mg/kg/injection, schedule: Q01DX009 (ip), vehicle: saline sonified) 104 % of control; (dose: 25.0 mg/kg/injection, schedule: Q01DX009 (ip), vehicle: saline sonified) 118 % of control; (dose: 50.0 mg/kg/injection, schedule: Q01DX009 (ip), vehicle: saline sonified) 100 % of control.

For the compound `CN(C)CCC(=O)Nc1nc(-c2ccc(Cl)cc2)cs1`, the T/C reads like this: under setting [6], 102 % of control; under setting [7], 92 % of control; under setting [8], 96 % of control.

In the case of `COC(=O)c1cc(=O)n(-c2ccccc2C)c(SC)n1`, the T/C by setting is: (dose: 100.0 mg/kg/injection, schedule: Q04DX002 (ip), vehicle: Klucel (hydroxypropylcellulose) (HPC)) 105 % of control; (dose: 200.0 mg/kg/injection, schedule: Q04DX002 (ip), vehicle: Klucel (hydroxypropylcellulose) (HPC)) 105 % of control.

As for `O=Cc1c(-c2ccc(-c3ccccc3)cc2)nc2n1CCS2`, the T/C is, setting by setting: under setting [9], 100 % of control; under setting [10], 97 % of control.

On to `CCOCC(=O)NC1Cc2cc(OC)c(OC)cc2C1O` (stereo not drawn), for which the T/C by setting is: under setting [5], 100 % of control; (dose: 120.0 mg/kg/injection, schedule: Q01DX005 (ip), vehicle: saline with Tween-80) 101 % of control; (dose: 240.0 mg/kg/injection, schedule: Q01DX005 (ip), vehicle: saline with Tween-80) 100 % of control.

As for `ClSC(c1ccccc1)(c1ccccc1)c1ccccc1`, the T/C under setting [6] was 103 % of control, the T/C under setting [7] is 118 % of control and the T/C under setting [8] was 94 % of control.

In the case of `O=C(c1ccccc1)c1nn(-c2ccccc2)c(=O)cc1-c1ccccc1`, the T/C under setting [6] is 99 % of control, the T/C under setting [7] is 100 % of control and the T/C under setting [8] is 100 % of control.

As to `CC(=O)Oc1c(C)c(OC(C)=O)c2c(c1C(C)=O)OC1CC(=O)C(C(C)=O)=C(O)C21C` (stereo not drawn), the T/C reads like this: (dose: 6.25 mg/kg/injection, schedule: Q01DX009 (ip), vehicle: gum acacia) 101 % of control and 97 % of control; (dose: 12.5 mg/kg/injection, schedule: Q01DX009 (ip), vehicle: gum acacia) 100 % of control and 102 % of control; (dose: 25.0 mg/kg/injection, schedule: Q01DX009 (ip), vehicle: gum acacia) 102 % of control; (dose: 50.0 mg/kg/injection, schedule: Q01DX009 (ip), vehicle: gum acacia) 101 % of control and 104 % of control; (dose: 100.0 mg/kg/injection, schedule: Q01DX009 (ip), vehicle: gum acacia) 94 % of control.

As for `C=C1CC2(CCC3(C)C(CCC4C5CCC(=O)C5(C)CCC43)C2)OC1=O` (stereo not drawn), the T/C is 95 % of control under setting [11]; 93 % of control (dose: 200.0 mg/kg/injection, schedule: Q04DX002 (ip), vehicle: saline with Tween-80); 96 % of control (dose: 400.0 mg/kg/injection, schedule: Q04DX002 (ip), vehicle: saline with Tween-80).

As for `C[n+]1cccc(NC(=O)c2ccccc2)c1`, the T/C is 102 % of control (dose: 7.5 mg/kg/injection, schedule: Q01DX005 (ip), vehicle: saline with Tween-80); 99 % of control under setting [3]; 113 % of control under setting [4].

As to `OCC(O)C(O)C(O)/C=N\Nc1ccccc1` (stereo not drawn), the T/C runs as follows: under setting [12], 100 % of control; under setting [13], 114 % of control.

Take `O=C(Nc1ccc([N+](=O)[O-])cc1)N1CCOCC1`: the T/C is, setting by setting: (dose: 12.5 mg/kg/injection, schedule: Q01DX009 (ip), vehicle: saline with Tween-80) 97 % of control; (dose: 25.0 mg/kg/injection, schedule: Q01DX009 (ip), vehicle: saline with Tween-80) 89 % of control; (dose: 50.0 mg/kg/injection, schedule: Q01DX009 (ip), vehicle: saline with Tween-80) 86 % of control and 92 % of control; (dose: 200.0 mg/kg/injection, schedule: Q01DX009 (ip), vehicle: saline with Tween-80) 88 % of control.

Take `Cc1cccc(C)c1NC(=O)C1C(=O)C(=O)N(c2c(C)cccc2C)C1=O` (stereo not drawn): the T/C is 100 % of control (dose: 25.0 mg/kg/injection, schedule: Q04DX002 (ip), vehicle: saline with Tween-80); 101 % of control (dose: 50.0 mg/kg/injection, schedule: Q04DX002 (ip), vehicle: saline with Tween-80); 98 % of control and 100 % of control under setting [11].

Turning to `Cc1cc(Cl)nc2nc(Cl)ccc12`, the T/C reads like this: under setting [6], 101 % of control; under setting [7], 93 % of control.

In the case of `CSCC[C@H](NC(C)=O)B1OCCO1`, the T/C (dose: 60.0 mg/kg/injection, schedule: Q01DX005 (ip), vehicle: saline) is 100 % of control; the T/C (dose: 120.0 mg/kg/injection, schedule: Q01DX005 (ip), vehicle: saline) is 104 % of control; the T/C (dose: 240.0 mg/kg/injection, schedule: Q01DX005 (ip), vehicle: saline) was 109 % of control.

As to `O=c1[nH]c2c([N+](=O)[O-])cc(Cl)cc2nc1/C=C(\O)c1ccccc1`, the T/C is, setting by setting: under setting [1], 105 % of control; under setting [2], 106 % of control.

Regarding `NSC(=S)NCc1ccco1`, the T/C was 106 % of control and 107 % of control (dose: 50.0 mg/kg/injection, schedule: Q01DX005 (ip), vehicle: Klucel (hydroxypropylcellulose) (HPC)); 101 % of control and 115 % of control (dose: 100.0 mg/kg/injection, schedule: Q01DX005 (ip), vehicle: Klucel (hydroxypropylcellulose) (HPC)); 115 % of control and 119 % of control (dose: 200.0 mg/kg/injection, schedule: Q01DX005 (ip), vehicle: Klucel (hydroxypropylcellulose) (HPC)).

As to `S=c1[nH]ccn1-c1ccccc1`, the T/C is, setting by setting: (dose: 25.0 mg/kg/injection, schedule: Q01DX009 (ip), vehicle: Klucel (hydroxypropylcellulose) (HPC)) 99 % of control; (dose: 50.0 mg/kg/injection, schedule: Q01DX009 (ip), vehicle: Klucel (hydroxypropylcellulose) (HPC)) 104 % of control; (dose: 100.0 mg/kg/injection, schedule: Q01DX009 (ip), vehicle: Klucel (hydroxypropylcellulose) (HPC)) 109 % of control; (dose: 200.0 mg/kg/injection, schedule: Q01DX009 (ip), vehicle: Klucel (hydroxypropylcellulose) (HPC)) 95 % of control.

`O=C(Nc1ccc(Br)cc1)ON1CCCCC1`: the T/C was 91 % of control under setting [12]; 87 % of control under setting [13]; 104 % of control (dose: 200.0 mg/kg/injection, schedule: Q01DX009 (ip), vehicle: saline).

As for `O=[N+]([O-])c1cc2no[n+]([O-])c2cc1N1CCOCC1`, the T/C by setting is: (dose: 3.75 mg/kg/injection, schedule: Q01DX009 (ip), vehicle: saline) 112 % of control and 88 % of control; (dose: 7.5 mg/kg/injection, schedule: Q01DX009 (ip), vehicle: saline) 101 % of control and 92 % of control; (dose: 15.0 mg/kg/injection, schedule: Q01DX009 (ip), vehicle: saline) 91 % of control and 97 % of control; (dose: 30.0 mg/kg/injection, schedule: Q01DX009 (ip), vehicle: saline) 103 % of control and 96 % of control.

As for `CC(OS(C)(=O)=O)C(Br)C(Br)C(C)OS(C)(=O)=O` (stereo not drawn), the T/C is 168 % of control under setting [9] and 176 % of control under setting [10].

As for `O=C1CCSC(=S)N1c1cc(Cl)c(Cl)cc1Cl`, the T/C runs as follows: (dose: 50.0 mg/kg/injection, schedule: Q01DX009 (ip), vehicle: suspension in saline) 106 % of control; (dose: 100.0 mg/kg/injection, schedule: Q01DX009 (ip), vehicle: suspension in saline) 108 % of control; (dose: 200.0 mg/kg/injection, schedule: Q01DX009 (ip), vehicle: suspension in saline) 109 % of control.
